# Data reported in patent publication US5591752A, “Quinoline derivative” (Ube Industries, Ltd., priority 1993, dated 1997).
# Biological target: T1, Leukotriene D4 (LTD4) receptor (Cavia porcellus, UniProt Q2NNR5)
# T1 construct: lung cell membrane fractions of guinea pigs were used; from tissue; host or cells: lung membrane fractions of Hartley strain male guinea pigs
# T1 sequence (Q2NNR5 1-340): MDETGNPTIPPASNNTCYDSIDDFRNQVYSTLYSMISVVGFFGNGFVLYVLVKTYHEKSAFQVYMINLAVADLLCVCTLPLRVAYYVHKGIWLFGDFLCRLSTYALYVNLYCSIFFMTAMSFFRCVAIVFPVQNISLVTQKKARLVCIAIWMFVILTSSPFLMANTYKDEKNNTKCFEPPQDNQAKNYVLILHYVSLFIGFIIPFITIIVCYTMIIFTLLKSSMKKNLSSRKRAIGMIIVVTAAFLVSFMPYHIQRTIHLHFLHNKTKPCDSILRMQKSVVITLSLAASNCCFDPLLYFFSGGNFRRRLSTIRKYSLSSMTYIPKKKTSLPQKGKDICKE
# Experiment: Leukotriene D4 receptor binding test ([3H]ICI-198615 displacement, lung cell membrane fractions)
# Details: guinea pig lung membranes; [3H]ICI-198615 about 0.2 nM; pKi=-log Ki; read-out: pKi value (converted)
# Experimental: Leukotriene D4 receptor binding test
# <Preparation of receptor samples>
# As receptor samples, lung cell membrane fractions of guinea pigs were used. The membrane fractions were prepared according to the method of Ahn et al. (Ahn, H. S. & Barnett, A. (1986) Eur. J. Pharmacol., 127, 153.). After Hartley strain male guinea pigs (body weight: 400 to 500 g, supplied by Nihon SLC Co.) were killed by exsanguination, lungs were extracted and perfused with a physiological saline solution (Otsuka Seiyaku) from lung arteries. The extracted lungs were cut into pieces immediately or after the lungs were stored by freezing them at -80 ° C. A 10-fold amount of a buffer solution (pH 7.4) of 10 mM PIPES, 10 mM MgCl2, 10 mM CaCl2 and 50 mM NaCl was added thereto and the mixtures were made suspensions by a homogenizer (manufactured by Yamato Co., LP-41C Model). After the suspensions were filtered with gauze, the filtrates were centrifuged by an ultracentrifuge (manufactured by Hitachi Co., 70P-72 Model) with 50,000 g for 10 minutes, whereby membrane fractions were deposited. The membrane fractions were washed twice and then suspended in the same buffer solution to obtain receptor samples. Measurement of a protein concentration was conducted by the Lowry method (Lowry, O, H. et al. (1951) J. Biol. Chem., 193,265.) by using bovine serum albumin as a standard protein. The samples prepared (protein amount: 10 to 25 mg/ml) were stored by freezing them at -80° C. and used for experiments.
# <Leukotriene D4 receptor binding test>
# The leukotriene D4 (LTD4) receptor binding test was conducted according to the method of O'Sullivan et al. (O'Sullivan, B. P. & Mong, S. (1989) Mol. Pharmacol., 35, 795.). The receptor samples were diluted with a buffer solution (pH 7.4) of 10 mM PIPES, 10 mM MgCl2, 10 mM CaCl2 and 50 mM NaCl and 0.42 mg/ml in terms of a protein amount was used. As a labeling compound, [^3 H]ICI-198615 (produced by Du Pont Co., 60 Ci/mmol) which specifically binds to the LTD4 receptor was used. [^3 H]ICI-198615 and a compound to be tested were dissolved in dimethylsulfoxide and a 1/50 amount (2% by volume) of the solution was added to the receptor-diluted solutions, respectively. 500 μl of each reaction mixture was incubated at 25° C. for 40 minutes and then filtered with a glass fiber filter (Whatman, GF/B type) by using a cell harvester (manufactured by Brandel Co., M-30R Model). The filters were washed with 10 ml of an ice-cooled 100 mM NaCl-50 mM phosphate buffer solution (pH 7.5) and subjected to ultrasonic treatment in 9 ml of a liquid scintillator (manufactured by Nacalai Tesque, Co., Clear sol I) for 2 minutes. Thereafter, radioactivity was measured by a liquid scintillation counter (manufactured by Packard Co., 2000 CA Model). In a test of determining a dissociation constant of ICI-198615, 0.1 to 2 nM [^3 H]ICI-198615 and 10 μM non-radioactive ICI-198615 were used. In a test of determining inhibition constants of the respective compounds to be tested, [^3 H]ICI-198615 having a concentration of about 0.2 nM and the compounds each having a concentration of 0.1 pM to 0.1 mM were used.
# <Data analysis of receptor binding test>
# The dissociation constant (Kd) of ICI-198615 and the binding inhibition constants (Ki) of the respective compounds to be tested were determined by the following numerical formulae (A), (B) and (C).
# wherein B: a concentration of a label [3H] which is bound to a receptor, Bmax: a maximum receptor-binding concentration of a label [^3 H], F: a concentration of a label [^3 H] which is not bound to a receptor, [L]: a concentration of a label [^3 H], IC50 : a concentration of a compound which inhibits 50% of binding of a label [^3 H] to a receptor and pKi: a logarithm, of a reciprocal of Ki.
row,Ki [nM],SMILES
1,5.01,"CC(SC1c2ccccc2COc2ccc(OCc3ccc4ccccc4n3)cc21)C(=O)O (stereo not drawn) [Example 23, 11-(1-Carboxyethylthio)-2-(quinolin-2-yl)methoxy-6,11-dihydrodibenz[b,e]oxepine]"
2,5.01,"O=C(O)COC1c2ccccc2COc2ccc(OCc3ccc4ccc(Cl)cc4n3)cc21 (stereo not drawn) [Example 27, 11-Carboxymethoxy-2-(7-chloroquinolin-2-yl)methoxy-6,11-dihydrobenz[b,e]oxepine]"
3,2,"Clc1ccc2ccc(COc3ccc4c(c3)C(OCCc3nn[nH]n3)c3ccccc3CO4)nc2c1 (stereo not drawn) [Example 31, 2-(7-Chloroquinolin-2-yl)methoxy-11-[2-(tetrazol-5-yl)ethoxy]-6,11-dihydrodibenz[b,e]oxepine]"
4,2,"O=C(CSC1c2ccccc2COc2ccc(OCc3ccc4ccc(Cl)cc4n3)cc21)NS(=O)(=O)c1ccccc1 (stereo not drawn) [Example 39, 11-[(Phenylsulfonyl)aminocarbonyl]methylthio-2-(7-chloroquinolin-2-yl)methoxy-6,11-dihydrodibenz[b,e]oxepine]"
5,2.51,"Cc1ccccc1S(=O)(=O)NC(=O)CCSC1c2ccccc2COc2ccc(OCc3ccc4ccc(Cl)cc4n3)cc21 (stereo not drawn) [Example 40, 2-(7-Chloroquinolin-2-yl)methoxy-11-[2-[(2-methylphenylsulfonyl)aminocarbonyl]ethylthio]-6,11-dihydrodibenz[B,e]oxepine]"
6,1.26,"O=C(CSC1c2ccccc2COc2ccc(OCc3ccc4ccccc4n3)cc21)NS(=O)(=O)c1ccccc1 (stereo not drawn) [Example 41, 11-[(Phenylsulfonyl)aminocarbonyl]methylthio-2-(quinolin-2-yl)methoxy-6,11-dihydrodibenz[b,e]oxepine]"

# Same assay, conditions: pKi value, guinea pig lung membranes; [3H]ICI-198615 about 0.2 nM; pKi=-log Ki
row,SMILES,Ki [nM]
1,"O=C(O)CCSC1c2ccccc2COc2ccc(OCc3ccc4ccc(Cl)cc4n3)cc21 (single isomer, unassigned; (+)) [Example 52, (+)-11-(2-Carboxyethylthio)-2-(7-chloroquinolin-2-yl)methoxy-6,11-dihydrodibenz[b,e]oxepine]",0.316
2,"O=C(O)CCSC1c2ccccc2COc2ccc(OCc3ccc4cc(F)c(Cl)cc4n3)cc21 (single isomer, unassigned; (-)) [Example 51, (-)-11-(2-Carboxyethylthio)-2-(7-chloro-6-fluoroquinolin-2-yl)methoxy-6,11-dihydrodibenz[b,e]oxepine]",1.26
3,"O=C(O)CCSC1c2ccccc2COc2ccc(OCc3ccc4ccc(Cl)cc4n3)cc21 (single isomer, unassigned; (-)) [Example 53, (-)-11-(2-Carboxyethylthio)-2-(7-chloroquinolin-2-yl)-methoxy-6,11-dihydrodibenz[b,e]oxepine]",3.98
4,"O=C(O)CCSC1c2ccccc2COc2ccc(OCc3ccc4cc(Cl)ccc4n3)cc21 (stereo not drawn) [Example 5, 11-(2-Carboxyethylthio)-2-(6-chloroquinolin-2-yl)methoxy-6,11-dihydrodibenz[b,e]oxepine]",3.16
5,"Cc1cccc2c1C(SCCC(=O)O)c1cc(OCc3ccc4ccc(Cl)cc4n3)ccc1OC2 (stereo not drawn) [Example 12, 11-(2-Carboxyethylthio)-2-(7-chloroquinolin-2-yl)methoxy-10-methyl-6,11-dihydrodibenz[b,e]oxepine]",5.01
6,"O=C(O)CCSC1c2ccc(Br)cc2COc2ccc(OCc3ccc4ccc(Cl)cc4n3)cc21 (stereo not drawn) [Example 14, 8-Bromo-11-(2-carboxyethylthio)-2-(7-chloroquinolin-2-yl)-methoxy-6,11-dihydrodibenz[b,e]oxepine]",3.16
7,"N#Cc1cccc2c1COc1ccc(OCc3ccc4ccc(Cl)cc4n3)cc1C2SCCC(=O)O (stereo not drawn) [Example 15, 11-(2-Carboxyethylthio)-2-(7-Chloroquinolin-2-yl)methoxy-7-cyano-6,11-dihydrodibenz[b,e]oxepine]",0.631
8,"O=C(O)CCSC1c2ccc(SCC(=O)O)cc2COc2ccc(OCc3ccc4ccc(Cl)cc4n3)cc21 (stereo not drawn) [Example 16, 11-(2-Carboxyethylthio)-8-carboxymethylthio-2-(7-chloroquinolin-2-yl)methoxy-6,11-dihydrodibenz[b,e]oxepine]",0.631
9,"O=C(O)CCSC1c2ccc(-c3nn[nH]n3)cc2COc2ccc(OCc3ccc4ccccc4n3)cc21 (stereo not drawn) [Example 17, 11-(2-Carboxyethylthio)-2-(quinolin-2-yl)methoxy-8-(tetrazol-5-yl)-6,11-dihydrodibenz[b,e]oxepine]",1.58
10,"O=C(O)CCSC1c2ccc(-c3nn[nH]n3)cc2COc2ccc(OCc3ccc4ccc(Cl)cc4n3)cc21 (stereo not drawn) [Example 18, 11-(2-Carboxyethylthio)-2-(7-chloroquinolin-2-yl)methoxy-8-(tetrazol-5-yl)-6,11-dihydrodibenz[b,e]oxepine]",0.2
11,"O=C(O)CCSC1c2cc(OCc3ccc4ccc(Cl)cc4n3)ccc2OCc2c(-c3nn[nH]n3)cccc21 (stereo not drawn) [Example 19, 11-(2-Carboxyethylthio)-2-(7-chloroquinolin-2-yl)methoxy-7-(tetrazol-5-yl)-6,11-dihydrodibenz[b,e]oxepine]",0.501
12,"NC(=O)c1cccc2c1COc1ccc(OCc3ccc4ccc(Cl)cc4n3)cc1C2SCCC(=O)O (stereo not drawn) [Example 20, 7-Carbamoyl-11-(2-carboxyethylthio)-2-(7-chloroquinolin-2-yl)methoxy-6,11-dihydrodibenz[b,e]oxepine]",0.631
13,"O=C(O)CCCSC1c2ccccc2COc2ccc(OCc3ccc4ccc(Cl)cc4n3)cc21 (stereo not drawn) [Example 24, 11-(3-Carboxypropylthio)-2-(7-chloroquinolin-2-yl)methoxy-6,11-dihydrodibenz[b,e]oxepine]",2.51
14,"Clc1ccc2ccc(COc3ccc4c(c3)C(SCCc3nn[nH]n3)c3ccccc3CO4)nc2c1 (stereo not drawn) [Example 30, 2-(7-Chloroquinolin-2-yl)methoxy-11-[2-(tetrazol-5-yl)ethylthio]-6,11-dihydrodibenz[b,e]oxepine]",2
15,"CC(=O)CCc1ccc2c(c1)COc1ccc(OCc3ccc4cc(F)c(Cl)cc4n3)cc1C2SCCC(=O)O (stereo not drawn) [Example 48, 11-(2-Carboxyethylthio)-2-(7-chloro-6-fluoroquinolin-2-yl)methoxy-8-(2-acetylethyl)-6,11-dihydrodibenz[b,e]oxepine]",0.2
